Results taken from patent publication US20190337978A1, “CRYSTALLIZATION METHODS USING FUNCTIONALIZED NANOPOROUS MATRICES AND RELATED SYSTEMS” (Massachusetts Institute of Technology, priority 2018, published 2019).
≈ marks a conversion by molar mass, not a printed value. Where a name gives a salt, the structure may show the parent alone.

Experiments:
[1] = Batch crystallization with Zorbax, mother liquor concentration via HPLC; type: physicochemical; settings: after batch crystallization of saturated isopropyl alcohol solution with Zorbax, stirred 6 h at 25° C.; effective solubility
physchem = settings: 25 °C, thermodynamic from solid
[2] = Capillary XRPD with Zorbax, critical minimum concentration for crystallization; settings: isopropyl alcohol solutions in capillaries containing functionalized Zorbax
Text: In order to test this hypothesis, solutions of successively lower concentrations were loaded into capillaries containing the functionalized Zorbax® and tested for the presence of crystals. […] The tubes were made of glass #50, with a 1.0 mm OD, wall thickness of 0.01 mm and length of 80 mm. The capillary tubes were packed with Zorbax® or CPG material by scooping powder into the tip, placing the capillary in a larger diameter glass pipette, and tapping to allow gravity to act on the powder to settle. Once packed, the tubes were suctioned at the open end with a 1-mL plastic syringe, using a small piece of rubber tubing to adapt the fit. The filled capillary was then immediately dipped into the undersaturated API solutions to allow the solution to fill the tube. Molten wax was used to plug the end of the capillary, and the tip was then heated in a Bunsen burner flame to seal. Additional capillaries were filled with the API solution and dry commercial API alone.
To check the hypothesis that there exists a critical minimum undersaturation below which the Zorbax® cannot induce crystallization, solutions of successively decreasing concentrations were tested with the capillary method.

| Mother liquor concentration [1] | solubility (physchem; organic solvent or mixture) | Concentration range from XRPD (critical minimum concentration for crystallization to occur) [2] | solubility (physchem; water) | SMILES |
| --- | --- | --- | --- | --- |
| 66.8 mg/mL | 90 mg/mL (≈ 500 mM) | 65000 to 70000 µg/mL |  | CC(=O)Oc1ccccc1C(=O)O [Aspirin] |
| 33.2 mg/mL | 46.5 mg/mL (≈ 381 mM) | 30000 to 35000 µg/mL |  | NC(=O)c1cccnc1 [Nicotinamide] |
|  |  | 25000 to 27000 µg/mL |  | CN(C)CCOC(c1ccccc1)c1ccccc1 [Diphenhydramine hydrochloride] |
|  |  |  | 15.5 mg/mL (≈ 103 mM) | CC(=O)Nc1ccc(O)cc1 [Acetaminophen] |
